Data: patent publication US20250353841A1 (BIOGEN MA INC., priority 2022, published 2025)

What follows are molecules tested on mutant Huntington (HTT) protein (assay: HTT Mutant HTRF iPSC assay (mHTT protein lowering)). Details: human iPSC derived from a HTT patient with a poly-Q49 mutation.
Assay type: cell-based
For `Cc1cn2nc(-c3cc(F)c4nc([C@H]5[C@@H]6CN(CC(F)F)C[C@@H]65)cn4c3)cc(C)c2n1` [Compound 217, 6-(2-((1R,5S,6r)-3-(2,2-difluoroethyl)-3-azabicyclo[3.1.0]hexan-6-yl)-8-fluoroimidazo[1,2-a]pyridin-6-yl)-2,8-dimethylimidazo[1,2-b]pyridazine], the IC50 was 100 to 1000 nM.
Work on `Cc1cn2nc(-c3cc(F)c4nc([C@H]5[C@@H]6CN(C7CC(F)(F)C7)C[C@@H]65)cn4c3)cc(C)c2n1` [Compound 218, 6-(2-((1R,5S,6r)-3-(3,3-difluorocyclobutyl)-3-azabicyclo[3.1.0]hexan-6-yl)-8-fluoroimidazo[1,2-a]pyridin-6-yl)-2,8-dimethylimidazo[1,2-b]pyridazine] yielded an IC50 of 100 to 1000 nM.
In the case of `Cc1nc2ccc(-c3cc(F)c4nc([C@H]5[C@@H]6CN(C)C[C@@H]65)cn4c3)nn2n1` [Compound 219, 6-(8-fluoro-2-((1R,5S,6r)-3-methyl-3-azabicyclo[3.1.0]hexan-6-yl)imidazo[1,2-a]pyridin-6-yl)-2-methyl-[1,2,4]triazolo[1,5-b]pyridazine], the IC50 is reported as 100 to 1000 nM.
`Cc1cn2nc(-c3cc(F)c4nc(C5CCN(C)CC5)cn4c3)cc2c(C)n1` [Compound 220, 2-(8-fluoro-2-(1-methylpiperidin-4-yl)imidazo[1,2-a]pyridin-6-yl)-4,6-dimethylpyrazolo[1,5-a]pyrazine] gave an IC50 of under 100 nM.
Molecule `COCCN1CCC(c2cn3cc(-c4cc5c(C)nc(C)cn5n4)cc(F)c3n2)CC1` [Compound 221, 2-(8-fluoro-2-(1-(2-methoxyethyl)piperidin-4-yl)imidazo[1,2-a]pyridin-6-yl)-4,6-dimethylpyrazolo[1,5-a]pyrazine] has an IC50 of under 100 nM.
`Cc1cn2nc(-c3cc(F)c4nc([C@H]5[C@@H]6CN(C)C[C@@H]65)cn4c3)cc2c(C)n1` [Compound 222, 2-(8-fluoro-2-((1R,5S,6r)-3-methyl-3-azabicyclo[3.1.0]hexan-6-yl)imidazo[1,2-a]pyridin-6-yl)-4,6-dimethylpyrazolo[1,5-a]pyrazine] was tested, and the IC50 was under 100 nM.
Work on `Cc1cc2nc(-c3cc(F)c4nc([C@H]5[C@@H]6CN(C)C[C@@H]65)cn4c3)cc(C)n2n1` [Compound 223, 5-(8-fluoro-2-((1R,5S,6r)-3-methyl-3-azabicyclo[3.1.0]hexan-6-yl)imidazo[1,2-a]pyridin-6-yl)-2,7-dimethylpyrazolo[1,5-a]pyrimidine] yielded an IC50 of 100 to 1000 nM.
In the case of `Cc1nc2c(C)cc(-c3cc(F)c4nc(C5CCN(C)CC5)cn4c3)nn2n1` [Compound 224], the IC50 is reported as under 100 nM.
`COc1cc(-c2cc(F)c3nc(C4CCN(C)CC4)cn3c2)nn2nc(C)nc12` [Compound 225, 6-(8-fluoro-2-(1-methylpiperidin-4-yl)imidazo[1,2-a]pyridin-6-yl)-8-methoxy-2-methyl-[1,2,4]triazolo[1,5-b]pyridazine] showed an IC50 of under 100 nM.
Work on `Cc1cn2nc(-c3cc(F)c4nc(C5CCN(C6(C)CC6)CC5)cn4c3)cc(C)c2n1` [Compound 226, 6-[8-fluoro-2-[1-(1-methylcyclopropyl)-4-piperidyl]imidazo[1,2-a]pyridin-6-yl]-2,8-dimethyl-imidazo[1,2-b]pyridazine] yielded an IC50 of 100 to 1000 nM.
For `Cc1nc2c(C)cc(-c3cc(F)c4nc([C@H]5[C@@H]6CN(C)C[C@@H]65)cn4c3)nn2n1` [Compound 227, 6-(8-fluoro-2-((1R,5S,6r)-3-methyl-3-azabicyclo[3.1.0]hexan-6-yl)imidazo[1,2-a]pyridin-6-yl)-2,8-dimethyl-[1,2,4]triazolo[1,5-b]pyridazine], the IC50 was under 100 nM.
With `Cc1cc(-c2cc(F)c3nc([C@H]4[C@@H]5CN(C)C[C@@H]54)cn3c2)nn2cc(C(F)F)nc12` [Compound 228, 2-(difluoromethyl)-6-(8-fluoro-2-((1R,5S,6r)-3-methyl-3-azabicyclo[3.1.0]hexan-6-yl)imidazo[1,2-a]pyridin-6-yl)-8-methylimidazo[1,2-b]pyridazine] the IC50 was 100 to 1000 nM.
`Cc1cn2nc(-c3cc(F)c4nc(C5CCC6(CCN(C)CC6)C5)cn4c3)cc(C)c2n1` (centres unmarked) [Compound 229, 2-(6-(2,8-dimethylimidazo[1,2-b]pyridazin-6-yl)-8-fluoroimidazo[1,2-a]pyridin-2-yl)-8-methyl-8-azaspiro[4.5]decane] gave an IC50 of under 100 nM.
Work on `Cc1cn2nc(-c3cc(F)c4nc([C@H]5[C@@H]6CN(C)C[C@@H]65)cn4c3)cc(C(F)(F)F)c2n1` [Compound 230, 6-(8-fluoro-2-((1R,5S,6r)-3-methyl-3-azabicyclo[3.1.0]hexan-6-yl)imidazo[1,2-a]pyridin-6-yl)-2-methyl-8-(trifluoromethyl)imidazo [1,2-b]pyridazine] yielded an IC50 of under 100 nM.
`Cc1cn2nc(-c3cc(F)c4nc([C@@H]5C6CCN(C)CC65)cn4c3)cc(C)c2n1` (stereo partly drawn) [Compound 231, 6-(8-fluoro-2-((7R)-3-methyl-3-azabicyclo[4.1.0]heptan-7-yl)imidazo[1,2-a]pyridin-6-yl)-2,8-dimethylimidazo[1,2-b]pyridazine] was tested, and the IC50 was under 100 nM.
`Cc1cn2nc(-c3cc(F)c4nc(C5CCC6(CCN(C)C6)C5)cn4c3)cc(C)c2n1` (centres unmarked) [Compound 232, 6-(8-fluoro-2-(2-methyl-2-azaspiro[4.4]nonan-7-yl)imidazo[1,2-a]pyridin-6-yl)-2,8-dimethylimidazo[1,2-b]pyridazine] gave an IC50 of under 100 nM.
`Cc1cn2nc(-c3cc(F)c4nc([C@H]5[C@@H]6CN(C)C[C@@H]65)cn4c3)cc(C(F)F)c2n1` [Compound 233, 8-(difluoromethyl)-6-(8-fluoro-2-((1R,5S,6r)-3-methyl-3-azabicyclo[3.1.0]hexan-6-yl)imidazo[1,2-a]pyridin-6-yl)-2-methylimidazo[1,2-b]pyridazine] showed an IC50 of under 100 nM.
For `Cc1cn2cc(-c3cc(F)c4nc(CC5CCNCC5)cn4c3)cc(F)c2n1` [Compound 236, 8,8′-difluoro-2-methyl-2′-(piperidin-4-ylmethyl)-6,6′-biimidazo[1,2-a]pyridine], the IC50 was 100 to 1000 nM.
`Cc1cn2nc(-c3cc(F)c4nc(CC5CCN(C)CC5)cn4c3)cc(C)c2n1` [Compound 237, 6-(8-fluoro-2-((1-methylpiperidin-4-yl)methyl)imidazo[1,2-a]pyridin-6-yl)-2,8-dimethylimidazo[1,2-b]pyridazine] showed an IC50 of under 100 nM.
`Cc1cn2nc(-c3cc(F)c4nc(CC5CCNCC5)cn4c3)cc(C)c2n1` [Compound 238, 6-(8-fluoro-2-(piperidin-4-ylmethyl)imidazo[1,2-a]pyridin-6-yl)-2,8-dimethylimidazo[1,2-b]pyridazine] was tested, and the IC50 was under 100 nM.
`Cc1cn2nc(-c3cc(F)c4nc(NC(=O)[C@H]5[C@@H]6CNC[C@@H]65)cn4c3)cc(C)c2n1` [Compound 246, (1R,5S,6r)-N-(6-(2,8-dimethylimidazo[1,2-b]pyridazin-6-yl)-8-fluoroimidazo[1,2-a]pyridin-2-yl)-3-azabicyclo[3.1.0]hexane-6-carboxamide] gave an IC50 of under 100 nM.
`Cc1cn2nc(-c3cc(F)c4nc(NC(=O)C5CCCNC5)cn4c3)cc(C)c2n1` (centres unmarked) [Compound 248, N-(6-(2,8-dimethylimidazo[1,2-b]pyridazin-6-yl)-8-fluoroimidazo[1,2-a]pyridin-2-yl)piperidine-3-carboxamide] gave an IC50 of under 100 nM.
`CNC1CC(C(=O)Nc2cn3cc(-c4cc(C)c5nc(C)cn5n4)cc(F)c3n2)C1` (centres unmarked) [Compound 249, N-(6-(2,8-dimethylimidazo[1,2-b]pyridazin-6-yl)-8-fluoroimidazo[1,2-a]pyridin-2-yl)-3-(methylamino)cyclobutane-1-carboxamide] was tested, and the IC50 was under 100 nM.
`Cc1cn2nc(-c3cc(F)c4nc(NC(=O)C5CCNCC5)cn4c3)cc(C)c2n1` [Compound 250, N-(6-(2,8-dimethylimidazo[1,2-b]pyridazin-6-yl)-8-fluoroimidazo[1,2-a]pyridin-2-yl)piperidine-4-carboxamide] gave an IC50 of 100 to 1000 nM.
Work on `Cc1cn2nc(-c3cc(F)c4nc(NC(=O)C5CC(CN(C)C)C5)cn4c3)cc(C)c2n1` (centres unmarked) [Compound 251, 3-((dimethylamino)methyl)-N-(6-(2,8-dimethylimidazo[1,2-b]pyridazin-6-yl)-8-fluoroimidazo[1,2-a]pyridin-2-yl)cyclobutane-1-carboxamide] yielded an IC50 of 100 to 1000 nM.
In the case of `Cc1cn2nc(-c3cc(F)c4nc(NC(=O)C5CC6(CCNC6)C5)cn4c3)cc(C)c2n1` (centres unmarked) [Compound 252, N-(6-(2,8-dimethylimidazo[1,2-b]pyridazin-6-yl)-8-fluoroimidazo[1,2-a]pyridin-2-yl)-6-azaspiro[3.4]octane-2-carboxamide], the IC50 is reported as 100 to 1000 nM.
Molecule `Cc1cn2nc(-c3cc(F)c4nc(NC(=O)C5CN(C6COC6)C5)cn4c3)cc(C)c2n1` [Compound 254, N-(6-(2,8-dimethylimidazo[1,2-b]pyridazin-6-yl)-8-fluoroimidazo[1,2-a]pyridin-2-yl)-1-(oxetan-3-yl)azetidine-3-carboxamide] has an IC50 of under 100 nM.
Molecule `Cc1cn2nc(-c3cc(F)c4nc(NC(=O)C5COC5)cn4c3)cc(C)c2n1` [Compound 256, N-(6-(2,8-dimethylimidazo[1,2-b]pyridazin-6-yl)-8-fluoroimidazo[1,2-a]pyridin-2-yl)oxetane-3-carboxamide] has an IC50 of 100 to 1000 nM.
Work on `Cc1cn2nc(-c3cc(F)c4nc(NC(=O)C5CN(C)C5)cn4c3)cc(C)c2n1` [Compound 257, N-(6-(2,8-dimethylimidazo[1,2-b]pyridazin-6-yl)-8-fluoroimidazo[1,2-a]pyridin-2-yl)-1-methylazetidine-3-carboxamide] yielded an IC50 of under 100 nM.
Molecule `Cc1cn2nc(-c3cc(F)c4nc(NC(=O)C5(C)CNC5)cn4c3)cc(C)c2n1` [Compound 258, N-(6-(2,8-dimethylimidazo[1,2-b]pyridazin-6-yl)-8-fluoroimidazo[1,2-a]pyridin-2-yl)-3-methylazetidine-3-carboxamide] has an IC50 of under 100 nM.
For `Cc1cn2nc(-c3cc(F)c4nc(NC(=O)C5(C)CN(C)C5)cn4c3)cc(C)c2n1` [Compound 261, N-(6-(2,8-dimethylimidazo[1,2-b]pyridazin-6-yl)-8-fluoroimidazo[1,2-a]pyridin-2-yl)-1,3-dimethylazetidine-3-carboxamide], the IC50 was under 100 nM.
Work on `Cc1cn2nc(-c3cc(F)c4nc(NC(=O)[C@H]5[C@@H]6CN(C)C[C@@H]65)cn4c3)cc(C)c2n1` [Compound 262, (1R,5S,6r)-N-(6-(2,8-dimethylimidazo[1,2-b]pyridazin-6-yl)-8-fluoroimidazo[1,2-a]pyridin-2-yl)-3-methyl-3-azabicyclo[3.1.0]hexane-6-carboxamide] yielded an IC50 of under 100 nM.
